Laboratory results published in patent publication US10130611B2, “Use of benzo-heterocycle derivatives for preventing and treating cancer or for inhibiting cancer metastasis” (MEDICINAL BIOCONVERGENCE RESEARCH CENTER, priority 2009, dated 2018).

What was measured:
MRS-AIMP3 = biological target: T1, MRS-AIMP3 (Homo sapiens, UniProt P56192); assay: Yeast two hybrid specificity test, LexA-MRS/B42-AIMP3 pair; format: cell-based; details: compound at 50 μg/ml, DMSO control 1.4732
T1 construct: expressed in transfected cells; host or cells: yeast
T1 sequence (P56192 1-900): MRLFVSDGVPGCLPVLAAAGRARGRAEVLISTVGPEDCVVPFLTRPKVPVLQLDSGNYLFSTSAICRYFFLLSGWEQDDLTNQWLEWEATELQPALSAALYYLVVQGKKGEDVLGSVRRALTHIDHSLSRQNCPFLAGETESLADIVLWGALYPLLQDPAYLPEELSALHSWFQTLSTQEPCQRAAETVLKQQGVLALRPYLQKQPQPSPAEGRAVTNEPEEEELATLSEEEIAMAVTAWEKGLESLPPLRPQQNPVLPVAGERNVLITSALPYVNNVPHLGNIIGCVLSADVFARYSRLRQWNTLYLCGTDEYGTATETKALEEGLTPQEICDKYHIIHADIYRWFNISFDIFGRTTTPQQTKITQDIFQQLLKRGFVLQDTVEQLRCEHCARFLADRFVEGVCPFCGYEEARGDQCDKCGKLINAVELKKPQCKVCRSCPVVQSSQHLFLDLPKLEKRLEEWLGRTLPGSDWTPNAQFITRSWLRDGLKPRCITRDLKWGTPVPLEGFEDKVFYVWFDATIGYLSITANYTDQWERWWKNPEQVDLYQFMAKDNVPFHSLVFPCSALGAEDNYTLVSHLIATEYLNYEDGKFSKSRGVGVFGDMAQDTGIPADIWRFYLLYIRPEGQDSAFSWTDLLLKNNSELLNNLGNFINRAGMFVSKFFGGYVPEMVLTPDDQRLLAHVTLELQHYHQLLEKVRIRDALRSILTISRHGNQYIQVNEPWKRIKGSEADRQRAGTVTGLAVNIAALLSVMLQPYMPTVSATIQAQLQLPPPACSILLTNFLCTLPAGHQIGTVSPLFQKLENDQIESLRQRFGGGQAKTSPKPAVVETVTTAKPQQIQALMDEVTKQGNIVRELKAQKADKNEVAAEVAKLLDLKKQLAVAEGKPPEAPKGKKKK
Method: On the compound of the present invention obtained by screening a library of compounds, the extent of inhibition on the interaction between KRS and laminin receptor (67LR) was determined by a yeast two hybrid assay, as described below. KRS, LR, AIMP2, AIMP3 and MRS were cloned at LexA vector (clontech) and B42 vector (clontech) each so as to produce required vectors. From among the vectors, LexA-KRS vector and B42-LR vector were co-transformed into yeast EGY/SH cells, and then the yeast cells were diluted to an absorbance (540 nm wavelength) of 0.2 in galactose medium not containing uracil (Ura), histidine (His), tryptophane (Trp) and leucine (Leu), and placed in an amount of 200 u in a 96 well plate. 1 μl of each compound at a concentration of 10 mg/ml was placed in each well, incubated for 6 days, and the absorbance was measured at 540 nm. […] The inhibitory specificity of the selected compound was tested by using two different interaction pairs such as LexA-KRS/B42-AIMP2 and LexA-MRS/B42-AIMP3. […]

GST-KRS = biological target: T2, GST-KRS (Homo sapiens, UniProt Q15046); assay: Surface plasmon resonance assay (BIAcore3000); details: GST-KRS immobilized on CM5 chip, binding to GST subtracted, 25° C., 1:1 binding
T2 construct: made in house; host or cells: E. coli Rosetta (DE3)
Method: As a control, an OD level of cells treated with DMSO was measured. FIG. 32 is a photograph showing cell growth in wells containing yeast cells having indicated interaction pairs in the presence or absence of CAND-KL1. In FIG. 33, in 293 cells, through co-immunoprecipitation, the KL1-dose-dependent effect on the interaction between KRS and 67LR was tested. The cells were treated with KL1 for 3 hours, 67LR was immunoprecipitated, and co-precipitation of KRS was determined by western blotting. In FIG. 34, in the presence of KL1 in indicated levels, a laminin receptor labeled with radioisotope was mixed with GST-KRS (1 μg). GST-KRS was precipitated with glutathione-Sepharose beads, and co-precipitated laminin receptor was detected with autoradiography. In FIG. 35, in A549 cells, the effect of KL1 on the intracellular level of 67LR and 37LRP was tested with western blotting. […] GST-KRS was immobilized on a CM5 Sensor Chip, and the binding was measured by a resonance unit (RU) at indicated concentrations (indicated by different colors). […]
The interaction between KRS and the compound (Formula 15) was tested by BIAcore3000 (GE healthcare). […] Then, the binding was measured by a change in a resonance unit (RU). The specific binding activity of CAND-KL1 to GST-KRS was measured by subtracting binding to GST in sensorgram. […]

T2 sequence (Q15046 whole entry): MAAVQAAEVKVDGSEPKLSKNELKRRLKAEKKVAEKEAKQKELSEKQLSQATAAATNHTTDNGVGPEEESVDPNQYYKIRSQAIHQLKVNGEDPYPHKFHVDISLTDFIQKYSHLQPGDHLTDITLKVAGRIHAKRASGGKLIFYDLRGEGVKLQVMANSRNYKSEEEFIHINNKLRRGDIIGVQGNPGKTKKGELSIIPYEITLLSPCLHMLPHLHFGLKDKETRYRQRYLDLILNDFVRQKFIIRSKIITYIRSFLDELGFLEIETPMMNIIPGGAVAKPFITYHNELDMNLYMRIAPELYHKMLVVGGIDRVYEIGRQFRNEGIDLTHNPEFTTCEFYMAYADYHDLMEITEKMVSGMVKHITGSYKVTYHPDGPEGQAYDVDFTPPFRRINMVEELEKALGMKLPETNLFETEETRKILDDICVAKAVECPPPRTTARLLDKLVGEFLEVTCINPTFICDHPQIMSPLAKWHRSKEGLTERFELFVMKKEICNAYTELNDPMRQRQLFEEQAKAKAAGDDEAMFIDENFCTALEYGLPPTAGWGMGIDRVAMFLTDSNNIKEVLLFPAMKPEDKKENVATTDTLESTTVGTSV

- MRS-AIMP3 (yeast growth, OD level) (MRS-AIMP3): 1.2443
- Kd (GST-KRS): ~2600 nM
Compound: CCC(C(=O)O)n1/c(=N/C(=O)c2ccc(C)cc2)sc2ccccc21 (centres unmarked) [Compound of formula 15, 2-[2-(4-Methyl-benzoylimino)-benzothiazol-3-yl]-butyric acid]
